# Calls of active or inactive are those of the source. The rule behind the calls is not given here.
# Key:
# [1] = molecular target: Phosphatidylinositol 4-kinase beta (Homo sapiens) (UniProt Q9UBF8); experiment: Inhibition of GST-tagged full-length human PI4K beta expressed in baculovirus system at 100 nM by adapta assay
# [2] = tested on: U-87MG ATCC; experiment: Inhibition of AKT phosphorylation at Thr308 residue in human U87MG cells at 10 uM by ELISA relative to control; type: cell-based
# [3] = molecular target: PI3-kinase p110-alpha/p85-alpha (Homo sapiens) (UniProt P27986+P42336); experiment: Inhibition of His-tagged full-length human recombinant PIK3CA/PIK3R1 expressed in baculovirus system at 100 nM by adapta assay
# [4] = molecular target: T1, 3-phosphoinositide-dependent protein kinase 1 (Homo sapiens) (UniProt O15530); experiment: Inhibition of PDK1-mediated cell migration in human U87MG cells at 10 uM […] measured at 6 to 24 hrs by scratch wound assay; type: cell-based; settings: U-87MG ATCC
# T1 sequence (whole entry): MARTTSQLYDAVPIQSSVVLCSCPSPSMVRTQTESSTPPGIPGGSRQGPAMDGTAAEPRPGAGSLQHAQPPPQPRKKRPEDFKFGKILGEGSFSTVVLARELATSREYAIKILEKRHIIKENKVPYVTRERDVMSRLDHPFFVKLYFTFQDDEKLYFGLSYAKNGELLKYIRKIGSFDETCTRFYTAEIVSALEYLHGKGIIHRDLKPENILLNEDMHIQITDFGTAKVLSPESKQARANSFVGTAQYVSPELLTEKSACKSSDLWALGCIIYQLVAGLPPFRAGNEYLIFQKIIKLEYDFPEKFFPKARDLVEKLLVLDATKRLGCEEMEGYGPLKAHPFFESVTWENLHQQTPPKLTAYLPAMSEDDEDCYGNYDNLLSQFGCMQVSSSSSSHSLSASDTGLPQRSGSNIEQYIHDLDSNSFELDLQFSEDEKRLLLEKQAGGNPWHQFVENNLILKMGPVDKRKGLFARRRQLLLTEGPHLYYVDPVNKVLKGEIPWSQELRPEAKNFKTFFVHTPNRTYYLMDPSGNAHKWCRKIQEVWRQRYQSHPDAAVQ
# [5] = molecular target: G protein-coupled receptor kinase 5 (Homo sapiens) (UniProt P34947); experiment: Inhibition of GST-tagged full-length human recombinant GRK5 expressed in baculovirus system at 100 nM by Z-lyte assay
# [6] = molecular target: Protein kinase C alpha type (Homo sapiens) (UniProt P17252); experiment: Inhibition of full-length human PRKCA expressed in baculovirus system at 100 nM by Z-lyte assay
# [7] = molecular target: Serine/threonine-protein kinase B-raf (Homo sapiens) (UniProt P15056); experiment: Inhibition of GST-tagged full-length human BRAF expressed in baculovirus system at 100 nM by Z-lyte assay
# [8] = molecular target: Cyclin-dependent kinase 5/CDK5 activator 1 (Homo sapiens) (UniProt Q00535+Q15078); experiment: Inhibition of GST/His-tagged full-length human CDK5/p25 expressed in baculovirus system at 100 nM by Z-lyte assay
# [9] = molecular target: AMP-activated protein kinase, AMPK (Homo sapiens) (UniProt P54646+O43741+P54619+Q9UGJ0+Q9Y478+Q13131+Q9UGI9); experiment: Inhibition of GST/His-tagged full-length human recombinant AMPK A1/B1/G1 expressed in baculovirus system at 100 nM by Z-lyte assay
# [10] = molecular target: Mitogen-activated protein kinase 14 (Homo sapiens) (UniProt Q16539); experiment: Inhibition of GST-tagged full-length human MAPK14 (direct) expressed in Escherichia coli at 100 nM by Z-lyte assay
# [11] = molecular target: Serine/threonine-protein kinase MARK1 (Homo sapiens) (UniProt Q9P0L2); experiment: Inhibition of GST-tagged full-length recombinant human MARK1 expressed in baculovirus system at 100 nM by Z-lyte assay
# [12] = molecular target: Interleukin-1 receptor-associated kinase 4 (Homo sapiens) (UniProt Q9NWZ3); experiment: Inhibition of His-tagged full-length human IRAK4 expressed in baculovirus system at 100 nM by Z-lyte assay
# [13] = molecular target: Proto-oncogene tyrosine-protein kinase Src (Homo sapiens) (UniProt P12931); experiment: Inhibition of His-tagged full-length recombinant human SRC expressed in baculovirus system at 100 nM by Z-lyte assay
# [14] = molecular target: Glycogen synthase kinase-3 alpha (Homo sapiens) (UniProt P49840); experiment: Inhibition of GSK3 alpha (unknown origin) at 100 nM by Z-lyte assay
# [15] = molecular target: Serine/threonine-protein kinase Chk1 (Homo sapiens) (UniProt O14757); experiment: Inhibition of His-tagged full-length human CHEK1 expressed in baculovirus system at 100 nM by Z-lyte assay
# [16] = molecular target: Protein kinase C beta type (Homo sapiens) (UniProt P05771); experiment: Inhibition of full-length human PRKCB1 expressed in baculovirus system at 100 nM by Z-lyte assay
# [17] = tested on: GSC; experiment: Antiproliferative activity against human GSC cells at 0.001 to 1 uM after 4 days by MTS assay; type: functional, cell-based
# [18] = (§1) Antiproliferative activity against human GSC cells after 7 days by MTS assay; type: functional, cell-based; settings: 168 h
# [19] = tested on: GSC; experiment: as §1; type: functional, cell-based
# [20] = Induction of apoptosis in human GSC cells assessed as late apoptotic cells by measuring phosphatidylserine externalisation at 10 uM after 7 days in presence of 7-amino-actinomysin by AnnexinV/FITC staining-based flow cytometry (reference value: 4.14%); type: functional
# [21] = molecular target: Ribosomal protein S6 kinase beta-1 (Homo sapiens) (UniProt P23443); experiment: Inhibition of catalytic GST-tagged human RPS6KB1 expressed in baculovirus system at 100 nM by Z-lyte assay
# [22] = Antiproliferative activity against human U87MG cells at 0.001 to 100 uM after 24 hrs by MTS assay; type: functional, U-87MG ATCC
# [23] = molecular target: RAC-alpha serine/threonine-protein kinase (Homo sapiens) (UniProt P31749); experiment: Inhibition of His-tagged full-length human AKT1 expressed in baculovirus system at 100 nM by Z-lyte assay
# [24] = molecular target: Mitogen-activated protein kinase 1 (Homo sapiens) (UniProt P28482); experiment: Inhibition of GST-tagged full-length human MAPK1 expressed in Escherichia coli at 100 nM by Z-lyte assay
# [25] = Induction of apoptosis in human GSC cells assessed as dead cells by measuring phosphatidylserine externalisation at 10 uM after 7 days in presence of 7-amino-actinomysin by AnnexinV/FITC staining-based flow cytometry (reference value: 1.68%); type: functional
# [26] = molecular target: Tyrosine-protein kinase ITK/TSK (Homo sapiens) (UniProt Q08881); experiment: Inhibition of cytosolic GST-tagged full-length recombinant human ITK expressed in baculovirus system at 100 nM by Z-lyte assay
# [27] = molecular target: Cyclin-dependent kinase 1/cyclin B1 (Homo sapiens) (UniProt P06493+P14635); experiment: Inhibition of His-tagged full-length human CDK1/Cyclin B expressed in baculovirus system at 100 nM by Z-lyte assay
# [28] = molecular target: Tyrosine-protein kinase ABL1 (Homo sapiens) (UniProt P00519); experiment: Inhibition of His-tagged full-length human ABL1 expressed in baculovirus system at 100 nM by Z-lyte assay
# Chain of Tyrosine-protein kinase ABL1 (Homo sapiens) (P00519 whole entry): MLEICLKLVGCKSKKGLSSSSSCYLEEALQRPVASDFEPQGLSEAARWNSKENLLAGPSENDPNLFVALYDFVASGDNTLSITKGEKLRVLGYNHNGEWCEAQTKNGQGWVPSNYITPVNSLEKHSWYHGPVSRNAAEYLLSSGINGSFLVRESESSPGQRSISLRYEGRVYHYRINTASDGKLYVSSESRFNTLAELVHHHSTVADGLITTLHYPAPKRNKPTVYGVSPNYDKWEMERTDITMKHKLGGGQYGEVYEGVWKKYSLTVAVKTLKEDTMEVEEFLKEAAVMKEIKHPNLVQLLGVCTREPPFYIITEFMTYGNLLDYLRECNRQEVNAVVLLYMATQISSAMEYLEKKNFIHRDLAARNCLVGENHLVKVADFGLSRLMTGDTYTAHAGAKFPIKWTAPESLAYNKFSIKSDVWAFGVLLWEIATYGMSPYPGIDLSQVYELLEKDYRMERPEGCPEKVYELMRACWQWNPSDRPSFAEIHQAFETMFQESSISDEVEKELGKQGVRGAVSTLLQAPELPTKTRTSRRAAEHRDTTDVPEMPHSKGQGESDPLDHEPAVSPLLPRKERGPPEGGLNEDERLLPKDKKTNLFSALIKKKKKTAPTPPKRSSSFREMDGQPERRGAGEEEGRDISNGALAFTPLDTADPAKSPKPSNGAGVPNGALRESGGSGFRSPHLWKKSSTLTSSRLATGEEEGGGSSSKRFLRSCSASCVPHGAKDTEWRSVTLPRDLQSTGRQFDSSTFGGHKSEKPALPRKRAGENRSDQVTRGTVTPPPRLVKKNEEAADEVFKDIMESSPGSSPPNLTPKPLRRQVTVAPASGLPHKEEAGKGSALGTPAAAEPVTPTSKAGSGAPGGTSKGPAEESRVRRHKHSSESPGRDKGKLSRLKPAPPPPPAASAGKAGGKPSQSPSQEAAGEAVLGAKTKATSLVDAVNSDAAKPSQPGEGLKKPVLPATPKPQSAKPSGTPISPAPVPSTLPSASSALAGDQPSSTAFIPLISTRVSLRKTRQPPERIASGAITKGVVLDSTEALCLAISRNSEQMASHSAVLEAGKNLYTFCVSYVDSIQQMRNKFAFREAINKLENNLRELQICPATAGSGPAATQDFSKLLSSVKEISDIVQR
# Chain of Mitogen-activated protein kinase 1 (Homo sapiens) (P28482 whole entry): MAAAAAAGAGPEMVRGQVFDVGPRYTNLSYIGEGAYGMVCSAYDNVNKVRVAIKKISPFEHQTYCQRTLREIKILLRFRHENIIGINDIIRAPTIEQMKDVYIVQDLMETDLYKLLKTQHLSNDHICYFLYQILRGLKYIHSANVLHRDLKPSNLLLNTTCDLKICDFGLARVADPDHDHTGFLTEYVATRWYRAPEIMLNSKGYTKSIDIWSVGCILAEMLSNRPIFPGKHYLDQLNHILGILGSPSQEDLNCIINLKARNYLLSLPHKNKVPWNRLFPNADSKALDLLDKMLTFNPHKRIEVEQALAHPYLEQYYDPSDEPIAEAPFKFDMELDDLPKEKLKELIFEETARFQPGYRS
# Chain of Serine/threonine-protein kinase Chk1 (Homo sapiens) (O14757 whole entry): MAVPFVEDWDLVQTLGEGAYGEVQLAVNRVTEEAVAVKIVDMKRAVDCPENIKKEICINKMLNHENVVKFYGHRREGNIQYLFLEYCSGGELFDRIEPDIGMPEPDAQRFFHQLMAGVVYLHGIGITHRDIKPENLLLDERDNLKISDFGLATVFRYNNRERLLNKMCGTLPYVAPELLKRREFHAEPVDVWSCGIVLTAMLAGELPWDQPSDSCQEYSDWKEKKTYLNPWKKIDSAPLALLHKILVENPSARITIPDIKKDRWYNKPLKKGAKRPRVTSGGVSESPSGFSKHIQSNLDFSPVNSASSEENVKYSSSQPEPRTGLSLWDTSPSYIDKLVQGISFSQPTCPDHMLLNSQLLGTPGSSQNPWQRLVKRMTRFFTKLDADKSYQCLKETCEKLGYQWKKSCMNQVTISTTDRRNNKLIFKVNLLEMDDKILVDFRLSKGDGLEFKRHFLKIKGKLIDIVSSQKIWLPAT
# Chain of Serine/threonine-protein kinase B-raf (Homo sapiens) (P15056 whole entry): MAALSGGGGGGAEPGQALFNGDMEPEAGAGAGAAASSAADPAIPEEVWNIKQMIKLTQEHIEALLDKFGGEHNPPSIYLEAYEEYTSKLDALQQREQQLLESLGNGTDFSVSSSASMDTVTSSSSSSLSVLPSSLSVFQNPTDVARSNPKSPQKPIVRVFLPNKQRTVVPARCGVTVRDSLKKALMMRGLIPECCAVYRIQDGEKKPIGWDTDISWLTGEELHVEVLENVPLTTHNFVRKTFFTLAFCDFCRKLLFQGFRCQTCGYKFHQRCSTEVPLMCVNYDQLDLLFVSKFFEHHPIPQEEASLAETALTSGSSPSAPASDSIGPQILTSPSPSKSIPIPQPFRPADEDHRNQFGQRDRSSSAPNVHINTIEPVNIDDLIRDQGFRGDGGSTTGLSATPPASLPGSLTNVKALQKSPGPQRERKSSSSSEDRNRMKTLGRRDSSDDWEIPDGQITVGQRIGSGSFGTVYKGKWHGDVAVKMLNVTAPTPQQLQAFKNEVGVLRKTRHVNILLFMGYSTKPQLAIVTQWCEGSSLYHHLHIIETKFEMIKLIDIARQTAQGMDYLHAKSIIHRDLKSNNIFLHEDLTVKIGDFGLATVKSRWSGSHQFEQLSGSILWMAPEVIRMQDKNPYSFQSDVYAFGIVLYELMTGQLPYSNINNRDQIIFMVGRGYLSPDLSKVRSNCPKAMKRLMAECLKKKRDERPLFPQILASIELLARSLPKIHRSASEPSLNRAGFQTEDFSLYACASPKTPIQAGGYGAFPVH
# Chain of RAC-alpha serine/threonine-protein kinase (Homo sapiens) (P31749 whole entry): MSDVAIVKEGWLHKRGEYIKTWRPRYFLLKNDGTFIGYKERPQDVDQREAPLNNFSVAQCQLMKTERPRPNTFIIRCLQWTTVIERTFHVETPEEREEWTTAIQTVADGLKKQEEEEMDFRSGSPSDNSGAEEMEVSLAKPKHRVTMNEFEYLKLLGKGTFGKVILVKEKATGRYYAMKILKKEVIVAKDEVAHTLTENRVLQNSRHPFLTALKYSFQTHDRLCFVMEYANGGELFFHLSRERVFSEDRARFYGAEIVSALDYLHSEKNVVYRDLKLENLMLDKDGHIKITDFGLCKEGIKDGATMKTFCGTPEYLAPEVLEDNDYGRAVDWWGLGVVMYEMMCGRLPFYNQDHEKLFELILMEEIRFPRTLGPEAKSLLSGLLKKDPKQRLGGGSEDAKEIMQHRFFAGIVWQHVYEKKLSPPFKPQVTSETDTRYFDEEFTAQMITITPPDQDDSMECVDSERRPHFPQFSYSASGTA
# Chain of Mitogen-activated protein kinase 14 (Homo sapiens) (Q16539 whole entry): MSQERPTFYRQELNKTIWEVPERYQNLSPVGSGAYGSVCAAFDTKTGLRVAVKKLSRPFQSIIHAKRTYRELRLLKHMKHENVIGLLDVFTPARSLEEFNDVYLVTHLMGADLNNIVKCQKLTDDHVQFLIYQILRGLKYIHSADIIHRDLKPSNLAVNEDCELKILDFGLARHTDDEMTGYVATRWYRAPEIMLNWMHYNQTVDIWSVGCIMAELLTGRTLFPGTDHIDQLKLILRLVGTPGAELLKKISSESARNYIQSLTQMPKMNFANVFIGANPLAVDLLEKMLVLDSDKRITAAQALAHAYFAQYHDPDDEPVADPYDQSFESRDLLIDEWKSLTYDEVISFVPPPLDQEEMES
# Chain of Tyrosine-protein kinase ITK/TSK (Homo sapiens) (Q08881 whole entry): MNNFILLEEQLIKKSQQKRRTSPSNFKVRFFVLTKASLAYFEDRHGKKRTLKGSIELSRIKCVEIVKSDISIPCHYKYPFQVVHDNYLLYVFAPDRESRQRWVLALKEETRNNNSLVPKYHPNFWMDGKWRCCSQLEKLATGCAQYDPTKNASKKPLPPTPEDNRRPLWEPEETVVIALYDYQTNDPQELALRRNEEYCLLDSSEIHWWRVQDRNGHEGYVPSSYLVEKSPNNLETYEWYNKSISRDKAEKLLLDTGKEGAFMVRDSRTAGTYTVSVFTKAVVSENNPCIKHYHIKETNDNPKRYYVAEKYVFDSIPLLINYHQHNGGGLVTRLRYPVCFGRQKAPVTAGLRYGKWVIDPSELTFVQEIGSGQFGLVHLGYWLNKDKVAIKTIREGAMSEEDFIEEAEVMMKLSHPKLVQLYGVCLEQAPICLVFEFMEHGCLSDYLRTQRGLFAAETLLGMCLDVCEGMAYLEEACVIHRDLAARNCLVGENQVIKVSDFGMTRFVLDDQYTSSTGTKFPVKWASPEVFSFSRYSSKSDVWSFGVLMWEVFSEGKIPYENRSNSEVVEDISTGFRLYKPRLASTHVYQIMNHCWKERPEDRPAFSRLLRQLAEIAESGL
structure (smiles),measurement,setting,value
O=C(CNC(=O)c1cccn(Cc2ccc(F)c(F)c2)c1=O)Nc1ccc2c(c1)/C(=C/c1cnc[nH]1)C(=O)N2,inhibition,[1],4%
same,inhibition,[2],Dose-dependent effect
same,inhibition,[3],20%
same,inhibition,[4],Active
same,inhibition,[5],-4%
same,inhibition,[6],0%
same,inhibition,[7],17%
same,inhibition,[8],-8%
same,inhibition,[9],7%
same,inhibition,[10],3%
same,inhibition,[11],17%
same,inhibition,[12],-6%
same,inhibition,[13],7%
same,inhibition,[14],43%
same,inhibition,[15],6%
same,inhibition,[16],-10%
same,Activity,[17],Active
same,IC50,[18],3.36 nM
same,Activity,[19],Dose-dependent effect
same,Activity,[20],22.7%
same,inhibition,[21],-6%
same,Imax,[22],41%
same,inhibition,[23],-8%
same,inhibition,[24],6%
same,Activity,[25],2.35%
same,inhibition,[26],14%
same,inhibition,[27],6%
same,inhibition,[28],14%
